The results in this text go back to US9981961B2, “Deoxycytidine kinase inhibitors” (The Regents of the University of California, priority 2013, dated 2018).

In the assay the target is dCK in CCRF-CEM cells (Homo sapiens, UniProt P27707). In words: cell-based.
Where [1] appears, read: IC50 (nM), Table 3, inhibition of 3H-deoxycytidine (dCyd) uptake in CEM cells, mean ± SD of n ≥ 2 unless (n = 1).
Setting [2] is: IC50, Example 4 list, assay and unit inferred, values correspond to the CEM 3H-dC uptake data of Tables 3 and 7.

Sequence of dCK in CCRF-CEM cells (P27707 whole entry): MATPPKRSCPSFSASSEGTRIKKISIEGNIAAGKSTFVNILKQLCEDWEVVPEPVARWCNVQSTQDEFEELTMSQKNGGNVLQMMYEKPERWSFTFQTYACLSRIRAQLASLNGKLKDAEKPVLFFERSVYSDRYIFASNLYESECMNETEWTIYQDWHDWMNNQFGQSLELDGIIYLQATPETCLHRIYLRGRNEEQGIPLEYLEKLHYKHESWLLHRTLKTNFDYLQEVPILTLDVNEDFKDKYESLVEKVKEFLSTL
Procedure: These were performed in CCRF-CEM acute lymphoblastic leukemia cells as previously described.^8, 9
dCK Uptake Assay Performed in Cell Culture. […] For the uptake assays cells were seeded at a density of 50,000 cells/well in Millipore MultiScreen GV 96 well plates. […] After 1 h at 37° C., cells were washed four times with ice cold phosphate-buffered saline (PBS) using the Millipore Vacuum Manifold. The amount of incorporated probe was measured by scintillation counting with the PerkinElmer Microbeta.

With `Cc1sc(-c2cc(F)cc(OCCNS(C)(=O)=O)c2)nc1C(C)Sc1nc(N)cc(N)n1` (centres unmarked) [Compound S31], the IC50 (commonly the concentration that gives 50% inhibition) under setting [1] came out at 9.07 nM.

`CCCc1sc(-c2ccc(OC)c(OCCCF)c2)nc1CSc1nc(N)cc(N)n1` [Compound S3] gave an IC50 under setting [1] of 2.5 nM and an IC50 under setting [2] of 2.51 nM.

The molecule `CCCc1sc(-c2ccc(OC)c(OCCOCCOCCOC)c2)nc1CSc1nc(N)cc(N)n1` [Compound S20, 2-(((2-(4-methoxy-3-(2-(2-(2-methoxyethoxy)ethoxy)ethoxy)phenyl)-5-propylthiazol-4-yl)methyl)thio)pyrimidine-4,6-diamine] came in with an IC50 under setting [1] of 3.31 nM and an IC50 under setting [2] of 3.31 nM.

`CCCc1sc(-c2ccc(N(CCNS(C)(=O)=O)S(C)(=O)=O)c(OCCNS(C)(=O)=O)c2)nc1CSc1nc(N)cc(N)n1` [Compound S2]: the half-inhibitory concentration (IC50) was 1200 nM under setting [1] and 1200 nM under setting [2].

Regarding `CCCc1sc(-c2ccc(F)c(OCCF)c2)nc1CSc1nc(N)cc(N)n1` [Compound S6], the IC50 is 23.3 nM under setting [1] and 23.4 nM under setting [2].

`CCCc1sc(-c2ccnc(OCCNS(C)(=O)=O)c2)nc1CSc1nc(N)cc(N)n1` [DI-46] had an IC50 under setting [2] of 1180 nM.

`COCCOCCOCCOc1cc(-c2nc(C(C)Sc3nc(N)cc(N)n3)c(-c3ccccc3)s2)ccc1OC` (centres unmarked) [Compound S28]: 98.9 nM corresponded to half-maximal inhibition under setting [1] (IC50).

Turning to `CCCc1sc(-c2cccc(OCCOCCOCCF)c2)nc1CSc1nc(N)cc(N)n1` [Compound S17], the IC50 by setting is: under setting [1], 69.1 nM; under setting [2], 69.1 nM.

For the molecule `CCCc1sc(-c2ccc(OC)c(OCCOCCOCCSc3nc(N)cc(N)n3)c2)nc1CSc1nc(N)cc(N)n1` [Compound S10], the IC50 by setting is: under setting [1], 4.7 nM; under setting [2], 4.75 nM.

As to `COc1cc(-c2cc(CSc3nc(N)cc(N)n3)sc2C)ccc1OCCF` [DI-63], half-maximal inhibition under setting [2] (IC50) was put at 1580 nM.

As to `CCCc1sc(-c2cc(F)cc(OCCOCCOCCF)c2)nc1CSc1nc(N)cc(N)n1` [Compound S19], inhibition under setting [1] was half-maximal at 33.7 nM (IC50) and the IC50 under setting [2] is 33.7 nM.

In the case of `CCCc1sc(-c2ccc(OC)c(OCCF)c2)nc1CCc1nc(N)cc(N)n1` [Compound S15], the concentration for half-maximal inhibition (IC50) by setting is: under setting [1], 664 nM; under setting [2], 664 nM.

The molecule `CCCc1sc(-c2ccnc(OCCF)c2)nc1CSc1nc(N)cc(N)n1` [Compound S7] showed an IC50 under setting [1] of 6.8 nM and an IC50 under setting [2] of 6.84 nM.

`CCCc1sc(-c2ccc(OCCF)c(OCC)c2)nc1CSc1nc(N)cc(N)n1` [Compound S4]: the half-inhibitory concentration (IC50) under setting [1] is 2.8 nM and the half-maximal inhibitory concentration (IC50) under setting [2] came out at 2.86 nM.

As for `COc1ccc(-c2cc(CSc3nc(N)cc(N)n3)c(C)o2)cc1OCCF` [Compound S12], the IC50 reads like this: under setting [1], 13500 nM; under setting [2], 13800 nM.

As for `CCCc1sc(-c2ccc(F)c(OCCCF)c2)nc1CSc1nc(N)cc(N)n1` [Compound S5], the IC50 came to 31.7 nM under setting [1] and 31.7 nM under setting [2].

In the case of `CCCc1sc(-c2ccc(OC)c(OCCOCCOCCF)c2)nc1CSc1nc(N)cc(N)n1` [Compound S16], the IC50 came out at 4.22 nM under setting [1] and 4.21 nM under setting [2].

Under setting [2], `COCCOCCOCCOc1cc(-c2nc(CSc3nc(N)cc(N)n3)c(C(Sc3nc(N)cc(N)n3)c3ccccc3)s2)ccc1OC` (centres unmarked) [DI-78] had an IC50 of 1660 nM.

`[2H]C([2H])(Sc1nc(N)cc(N)n1)c1nc(-c2ccnc(OCCF)c2)sc1CCC` [Compound S8]: the IC50 is, setting by setting: under setting [1], 30 nM; under setting [2], 30 nM.

Take `COc1cc(-c2cc(CSc3nc(N)cc(N)n3)c(C)s2)ccc1OCCF` [Compound S18]: the IC50 reads like this: under setting [1], 262 nM; under setting [2], 263 nM.

For `COCCOCCOCCOc1cc(-c2nc(CSc3nc(N)cc(N)n3)c(C)s2)ccc1OC` [Compound S26], the 50% inhibitory concentration (IC50) is, setting by setting: under setting [1], 9.1 nM; under setting [2], 9.3 nM.

In turn, `COCCOCCOCCOc1cc(-c2nc(CSc3nc(N)cc(N)n3)c(C3CC3)s2)ccc1OC` [Compound S25] returned an IC50 under setting [1] of 23 nM and an IC50 under setting [2] of 5.28 nM.

Consider `COc1cc(-c2cc(CSc3nc(N)cc(N)n3)c(C)o2)ccc1OCCF` [Compound S14], for which the half-maximal inhibitory concentration (IC50) amounted to 276 nM under setting [1] and 276 nM under setting [2].
